# From patent US7144893B2, “4-aryl quinols and analogs thereof as therapeutic agents” (Cancer Research Technology Limited, priority 2001, dated 2006)
# Legend:
# [1] = system: Mycobacterium tuberculosis H37Rv (ATCC 27294); test: Microplate Alamar Blue Assay (MABA), TAACF primary screening; assay type: cell-based; conditions: lowest concentration effecting a reduction in fluorescence of 90% relative to controls
# Source text: Compounds were submitted to the Tuberculosis Antimicrobial Acquisition and Coordinating Facility (TAACF) for testing as antimycobacterial drugs.
# Compounds were subjected to in vitro evaluation for antimycobacterial activity.
# See, for example, Collins et al., 1997.
# [2] = system: renal sub-panel; test: cells; assay type: cell-based; conditions: Homo sapiens, 60 cell, read-out: mean LC50 in renal sub-panel
# Protocol: (§1) Compounds were tested for in vitro activity (48 h drug exposure) across 60 human cancer cell lines through the National Cancer Institute (NCI) Developmental Therapies Screening Program (Boyd et al., 1995).
# [3] = system: 60 human cancer cell lines; test: cells; assay type: cell-based; conditions: Homo sapiens; for CC50: 60 cell, 48 h, read-out: mean LC50; for GI50: mean over NCI 60 cell panel, 48 h drug exposure
# Protocol: as §1
# [4] = system: colon sub-panel; test: cells; assay type: cell-based; conditions: Homo sapiens, SW-620, read-out: mean LC50 in colon sub-panel
# Protocol: as §1
# [5] = system: HCT 116 colon carcinoma; test: Growth inhibitory assay (MTT, 72 hr); assay type: cell-based; conditions: Homo sapiens, 72 hr exposure
# Protocol: (§2) Compounds were prepared as 10 mM top stocks, dissolved in DMSO, and stored at 4° C., protected from light, for a maximum period of 4 weeks. Human derived cell lines (HCT 116, HT29 colon carcinoma; MCF-7 (ER+), MDA 468 (ER−) breast carcinoma; A549 lung adenocarcinoma) were routinely cultivated at 37° C. in an atmosphere of 5% CO2 in RPMI 1640 medium supplemented with 2 mM L-glutamine and 10% fetal calf serum and subcultured twice weekly to maintain continuous logarithmic growth. Cells were seeded into 96-well microtiter plates at a density of 5×10^3 per well and allowed 24 hr to adhere before drugs were introduced (final concentration 0.1 nM–100 μM, n=8). Serial drug dilutions were prepared in medium immediately prior to each assay. At the time of drug addition and following 72 hr exposure, MTT was added to each well (final concentration 400 µg/mL). Incubation at 37° C. for 4 hr allowed reduction of MTT by mitochondrial dehydrogenase to an insoluble formazan product. Well contents were aspirated and formazan solubilized by addition of DMSO:glycine buffer (pH 10.5) (4:1). Absorbance was measured using an Anthos Labtec systems plate reader at 550 nm, and used as a measure of cell viability; thus cell growth or drug toxicity was determined.
# [6] = system: HT29 colon carcinoma; test: Growth inhibitory assay (MTT, 72 hr); assay type: cell-based; conditions: Homo sapiens, HT-29, 72 hr exposure
# Protocol: as §2
# [7] = system: A549 lung adenocarcinoma; test: Growth inhibitory assay (MTT, 72 hr); assay type: cell-based; conditions: Homo sapiens, 72 hr exposure
# Protocol: as §2
# [8] = target: thioredoxin (Homo sapiens, UniProt P10599); conditions: irreversible inhibitor of thioredoxin; cited from earlier work
# Chain of thioredoxin (P10599 whole entry): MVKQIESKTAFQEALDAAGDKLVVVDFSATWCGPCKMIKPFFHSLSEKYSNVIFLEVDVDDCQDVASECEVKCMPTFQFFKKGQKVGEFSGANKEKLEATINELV
# [9] = system: MCF-7 (ER+) breast carcinoma; test: Growth inhibitory assay (MTT, 72 hr); assay type: cell-based; conditions: Homo sapiens, MCF7, 72 hr exposure
# Protocol: as §2
# [10] = system: MDA 468 (ER−) breast carcinoma; test: Growth inhibitory assay (MTT, 72 hr); assay type: cell-based; conditions: Homo sapiens, 72 hr exposure
# Protocol: as §2
# [11] = bovine, serum; cited from earlier work
Compound,MIC [1] [µg/mL],mean LC50 [2] [µM],CC50 [3] [µM],GI50 [3] [µM],LC50 [4] [µM],IC50 [5] [µM],IC50 [6] [µM],IC50 [7] [µM],Ki [8] [µM],melting point [°C],IC50 [9] [µM],IC50 [10] [µM],half-life [11] [min]
"O=C1C=CC(O)(c2cc3ccccc3o2)C=C1 [Q01, 4-(Benzofuran-2-yl)-4-hydroxy-2,5-cyclohexadien-1-one]",1.56,2.4,7.24,0.52,3.66,0.159,0.419,2.3,–,–,–,–,–
"CN(C)CC1CCC(CN(C)C)C1=O (centres unmarked) [NSC-131233, 2,5-bis[(dimethylamino)methyl]cyclopentanone]",–,–,–,–,–,–,–,–,1,–,–,–,–
"O=C1C=CC(O)(c2cc3ccccc3[nH]2)C=C1 [Q03, 4-(Indol-2-yl)-4-hydroxy-2,5-cyclohexadien-1-one]",3.13,–,–,1.41,–,2.84,1.76,6.13,–,133,–,–,–
"O=C1C=CC(O)(c2nc3ccccc3o2)C=C1 [Q04, 4-(Benzoxazol-2-yl)-4-hydroxy-2,5-cyclohexadien-1-one]",1.56,1.64,7.08,0.46,1.13,0.18,0.29,2.33,–,–,0.39,0.35,–
O=CN/C=C/c1cc(O)ccc1O [erbstatin],–,–,–,–,–,–,–,–,–,–,–,–,< 30
